Results from publication PMC4947679, “Quantitative In Vitro and In Vivo Evaluation of Intestinal and Blood-Brain Barrier Transport Kinetics of the Plant N-Alkylamide Pellitorine” (BioMed Research International, 2016).

Legend:
[1] = Blood-to-brain transport, multiple time regression (MTR) analysis in mice
Protocol: Seven-to-ten-week-old female, Institute for Cancer Research, Caesarean Derived-1 (ICR-CD-1) mice (Harlan Laboratories, Venray, Netherlands) weighing 29–32 g were used for the BBB transport experiments. The experiments were performed according to the Ethical Committee principles of laboratory animal welfare as approved by Ghent University (Faculty of Veterinary Medicine, number EC2014/128).
An in vivo multiple time regression (MTR) analysis was performed in order to determine whether pellitorine could enter the brain. A dose solution of 1.8 mg/mL pure pellitorine dissolved in 6.9% EtOH, 2.5% dimethylacetamide, and 0.5% tween 80 (all w/w) diluted in lactated Ringer's solution containing 1% BSA was prepared. After anesthetizing the mice intraperitoneally with a 40% (w/V) urethane solution (3 g/kg), the jugular internalis vein and carotid artery were isolated and 20 μL of the pellitorine dose solution was injected into the jugular vein. After 1, 3, 5, 10, 12.5, and 15 min after injection (with start and end in duplicate), blood was collected from the carotid artery. Immediately thereafter, the mice were decapitated and the brains were isolated. […] The serum concentrations of pellitorine were plotted against the time (expressed in min). The curve was fitted using a first-order kinetic, two-compartment model: C(t) = C 1 × e ^−α×t + C 2 × e ^−β×t, in which C is the concentration of pellitorine in serum at time t, α and β are hybrid constants, dependent on the rate constants k e (elimination rate constant), k 1,2 (rate constant between central and peripheral tissue compartment), k 2,1 (rate constant between peripheral tissue and central compartment), C 1 is the concentration obtained after extrapolation of the distribution phase α to the y-axis, and C 2 is the concentration obtained after extrapolation of the elimination phase β to the y-axis. The ratio of the pellitorine brain and serum concentration (μL/g) was plotted versus the exposure time (θ), which is a derived time variable of the Gjedde-Patlak plot, to determine the BBB influx kinetics of pellitorine.
The exposure time is computed as θ = ∫0 ^T((C s(t) · dt)/C s(T)) and is defined as the integral of the concentration of pellitorine in serum from start (t = 0 min) to time T, divided by the concentration of pellitorine in serum at time T. The integral of the concentration of pellitorine in serum from zero to time T is the area under the curve until time T.
The brain uptake of pellitorine was fitted using a biphasic model, as elaborated by Wong et al.: (4) CbrainT/CsTK·θ+Vg·1−e^−θ·K1−K/Vg+V0≅K=0Vg·1−e^−θ·K1/Vg+V0 in which C brain(T) is the concentration of pellitorine in the brain at time T (ng/g), C s(T) the concentration of pellitorine in serum at time T (ng/μL), K the net clearance (μL/(g·min)), V g the tissue brain distribution volume (μL/g), K 1 the unidirectional clearance from pellitorine from blood to brain (i.e., the unidirectional brain transfer coefficient, also referred to as influx rate) (μL/(g·min)), and V 0 the vascular brain distribution volume (μL/g).

fatty acid uptake = tested on: fatty acid uptake; parameters: method as in PMID 25422952; conditions: in vitro; cited from earlier work
[2] = female, ICR-CD-1, mouse, serum, iv, 36 μg/mouse
[3] = mice, intravenous, two-compartment model

CCCCC/C=C/C=C/C(=O)NCC(C)C [pellitorine, deca-2E,4E-dienoic acid isobutylamide]
Kp ([1]; female, ICR-CD-1, mouse, brain (relative to serum), iv, 36 μg/mouse): 0.792 | half-life [1, 2]: 4.48 min | k el [1, 2]: 0.0025 s⁻¹ | unidirectional influx rate K 1 ([1]; mice, injection into jugular vein, MTR): 153 µL/g/min | tissue brain distribution volume (V g) ([1]; mice, intravenous, biphasic model): 792 µL/g | C 1 (serum, extrapolation of distribution phase) [1, 3]: 7.02 µg/mL | C 2 (serum, extrapolation of elimination phase) [1, 3]: 0.44 µg/mL | distribution rate constant α ([1]; mouse serum, intravenous, two-compartment model): 1.56 min⁻¹ | toxicity during the experiment ([1]; mouse, in vivo, iv): no toxicity was observed | fatty acid uptake (fatty acid uptake): reduces fatty acid uptake
